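Growth conditions: 96-well plates. Treatment: test compound, 48 hours, 5 concentrations. Analysis: linear interpolation between bracketing concentrations; unreached endpoints set to highest concentration. GI50: concentration for 50% inhibition of growth.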 Calls of active or inactive are those of the source. Cut-off read from the data, not from the text of the source: active = GI50 up to about 1.1 µM and inactive = higher.
What was measured:
Assay in all cases: inhibition of tumour cell growth, NCI panel, 48 h
786-0 = test system: 786-0
A498 = test system: A498
A549 = test system: A549
ACHN = test system: ACHN
BT-549 = test system: BT-549
CAKI-1 = test system: CAKI-1
CCRF-CEM = test system: CCRF-CEM
COLO 205 = test system: COLO 205
DU-145 = test system: DU-145
EKVX = test system: EKVX
HCT-116 = test system: HCT-116
HCT-15 = test system: HCT-15
HL-60 = test system: HL-60
HOP-62 = test system: HOP-62
HOP-92 = test system: HOP-92
HT-29 = test system: HT-29
Hs-578T = test system: Hs-578T
IGROV-1 = test system: IGROV-1
K562 = test system: K562
KM12 = test system: KM12
LOX IMVI = test system: LOX IMVI
M14 = test system: M14
MCF7 = test system: MCF7
MDA-MB-231 = test system: MDA-MB-231
MDA-MB-435 = test system: MDA-MB-435
MDA-N = test system: MDA-N
MOLT-4 = test system: MOLT-4
Malme-3M = test system: Malme-3M
NCI-H226 = test system: NCI-H226
NCI-H23 = test system: NCI-H23
NCI-H460 = test system: NCI-H460
NCI-H522 = test system: NCI-H522
NCI/ADR-RES = test system: NCI/ADR-RES
OVCAR-3 = test system: OVCAR-3
OVCAR-4 = test system: OVCAR-4
OVCAR-5 = test system: OVCAR-5
OVCAR-8 = test system: OVCAR-8
PC-3 = test system: PC-3
RPMI-8226 = test system: RPMI-8226
RXF 393 = test system: RXF 393
SF-268 = test system: SF-268
SF-295 = test system: SF-295
SF-539 = test system: SF-539
SK-MEL-28 = test system: SK-MEL-28
SK-MEL-2 = test system: SK-MEL-2
SK-MEL-5 = test system: SK-MEL-5
SK-OV-3 = test system: SK-OV-3
SN12C = test system: SN12C
SNB-19 = test system: SNB-19
SNB-75 = test system: SNB-75
SR = test system: SR
SW-620 = test system: SW-620
T47D = test system: T47D
TK-10 = test system: TK-10
U-251 = test system: U-251
UACC-257 = test system: UACC-257
UACC-62 = test system: UACC-62
UO-31 = test system: UO-31
HCC 2998 = test system: HCC 2998

Structure (SMILES): CC(C)C(C)/C=C\C(C)C1CCC2C3=CC=C4CC(O)CCC4(C)C3CCC21C (stereo not drawn)
- GI50 (786-0): > 43.2 µM (inactive)
- GI50 (A498): > 85.5 µM (inactive)
- GI50 (A549): > 100 µM (inactive)
- GI50 (ACHN): > 42 µM (inactive)
- GI50 (BT-549): > 50.4 µM (inactive)
- GI50 (CAKI-1): > 43.7 µM (inactive)
- GI50 (CCRF-CEM): 19.8 µM (inactive)
- GI50 (COLO 205): 43.9 µM (inactive)
- GI50 (DU-145): 51.6 µM (inactive)
- GI50 (EKVX): > 39.4 µM (inactive)
- GI50 (HCT-116): 39.8 µM (inactive)
- GI50 (HCT-15): > 42.8 µM
- GI50 (HL-60): 32.6 µM (inactive)
- GI50 (HOP-62): > 51.1 µM (inactive)
- GI50 (HOP-92): 5.75 µM (inactive)
- GI50 (HT-29): 33.3 µM (inactive)
- GI50 (Hs-578T): > 41.3 µM (inactive)
- GI50 (IGROV-1): 31.4 µM (inactive)
- GI50 (K562): 26.5 µM (inactive)
- GI50 (KM12): > 54.8 µM (inactive)
- GI50 (LOX IMVI): > 42.7 µM (inactive)
- GI50 (M14): > 46.8 µM (inactive)
- GI50 (MCF7): 30.2 µM (inactive)
- GI50 (MDA-MB-231): > 40.6 µM (inactive)
- GI50 (MDA-MB-435): 41.1 µM (inactive)
- GI50 (MDA-N): > 46.2 µM (inactive)
- GI50 (MOLT-4): 17.7 µM (inactive)
- GI50 (Malme-3M): > 34.7 µM (inactive)
- GI50 (NCI-H226): > 38 µM (inactive)
- GI50 (NCI-H23): > 76.7 µM (inactive)
- GI50 (NCI-H460): > 36.1 µM (inactive)
- GI50 (NCI-H522): 38.6 µM (inactive)
- GI50 (NCI/ADR-RES): > 41.3 µM (inactive)
- GI50 (OVCAR-3): > 51.1 µM (inactive)
- GI50 (OVCAR-4): > 100 µM (inactive)
- GI50 (OVCAR-5): > 100 µM (inactive)
- GI50 (OVCAR-8): 29.2 µM (inactive)
- GI50 (PC-3): > 56.2 µM (inactive)
- GI50 (RPMI-8226): 29.3 µM (inactive)
- GI50 (RXF 393): > 42.5 µM (inactive)
- GI50 (SF-268): > 42.7 µM (inactive)
- GI50 (SF-295): > 64.9 µM (inactive)
- GI50 (SF-539): > 44.6 µM (inactive)
- GI50 (SK-MEL-28): > 41.7 µM (inactive)
- GI50 (SK-MEL-2): > 62.1 µM (inactive)
- GI50 (SK-MEL-5): 23.8 µM (inactive)
- GI50 (SK-OV-3): > 100 µM (inactive)
- GI50 (SN12C): > 42.1 µM (inactive)
- GI50 (SNB-19): > 74.5 µM (inactive)
- GI50 (SNB-75): > 42.8 µM (inactive)
- GI50 (SR): 34.4 µM (inactive)
- GI50 (SW-620): > 49.3 µM (inactive)
- GI50 (T47D): 81.5 µM (inactive)
- GI50 (TK-10): > 55 µM (inactive)
- GI50 (U-251): > 31.8 µM (inactive)
- GI50 (UACC-257): > 76.9 µM (inactive)
- GI50 (UACC-62): > 44.6 µM (inactive)
- GI50 (UO-31): > 48.3 µM (inactive)

Structure (SMILES): N#CCN1c2ccccc2CCC1Cl (stereo not drawn)
- GI50 (786-0): > 10 µM (inactive)
- GI50 (A498): > 10 µM (inactive)
- GI50 (A549): > 10 µM (inactive)
- GI50 (ACHN): > 10 µM (inactive)
- GI50 (BT-549): > 10 µM (inactive)
- GI50 (CAKI-1): > 10 µM (inactive)
- GI50 (CCRF-CEM): > 10 µM (inactive)
- GI50 (COLO 205): > 10 µM (inactive)
- GI50 (DU-145): > 10 µM (inactive)
- GI50 (EKVX): > 10 µM (inactive)
- GI50 (HCC 2998): > 10 µM (inactive)
- GI50 (HCT-116): > 10 µM (inactive)
- GI50 (HCT-15): > 10 µM
- GI50 (HOP-62): > 10 µM (inactive)
- GI50 (HOP-92): > 10 µM (inactive)
- GI50 (HT-29): > 10 µM (inactive)
- GI50 (Hs-578T): > 10 µM (inactive)
- GI50 (IGROV-1): > 10 µM (inactive)
- GI50 (K562): > 10 µM (inactive)
- GI50 (KM12): > 10 µM (inactive)
- GI50 (LOX IMVI): > 10 µM (inactive)
- GI50 (M14): > 10 µM (inactive)
- GI50 (MCF7): > 10 µM (inactive)
- GI50 (MDA-MB-231): > 10 µM (inactive)
- GI50 (MDA-MB-435): > 10 µM (inactive)
- GI50 (MDA-N): > 10 µM (inactive)
- GI50 (MOLT-4): > 10 µM (inactive)
- GI50 (Malme-3M): > 10 µM (inactive)
- GI50 (NCI-H226): > 10 µM (inactive)
- GI50 (NCI-H23): > 10 µM (inactive)
- GI50 (NCI-H460): > 10 µM (inactive)
- GI50 (NCI-H522): > 10 µM (inactive)
- GI50 (NCI/ADR-RES): > 10 µM (inactive)
- GI50 (OVCAR-3): > 10 µM (inactive)
- GI50 (OVCAR-4): > 10 µM (inactive)
- GI50 (OVCAR-5): > 10 µM (inactive)
- GI50 (OVCAR-8): > 10 µM (inactive)
- GI50 (PC-3): > 10 µM (inactive)
- GI50 (RPMI-8226): > 10 µM (inactive)
- GI50 (SF-268): > 10 µM (inactive)
- GI50 (SF-295): > 10 µM (inactive)
- GI50 (SF-539): > 10 µM (inactive)
- GI50 (SK-MEL-28): > 10 µM (inactive)
- GI50 (SK-MEL-5): > 10 µM (inactive)
- GI50 (SK-OV-3): > 10 µM (inactive)
- GI50 (SN12C): > 10 µM (inactive)
- GI50 (SNB-19): > 10 µM (inactive)
- GI50 (SR): > 10 µM (inactive)
- GI50 (SW-620): > 10 µM (inactive)
- GI50 (T47D): > 10 µM (inactive)
- GI50 (TK-10): > 10 µM (inactive)
- GI50 (U-251): > 10 µM (inactive)
- GI50 (UACC-257): > 10 µM (inactive)
- GI50 (UACC-62): > 10 µM (inactive)
- GI50 (UO-31): > 10 µM (inactive)
